Reference: patent US10947188B2, “Small molecule ferroptosis inducers” (THE TRUSTEES OF COLUMBIA UNIVERSITY IN THE CITY OF NEW YORK, priority 2016, dated 2021)

Test system: HT-1080 cells
Test: Lethality of commercially available CIL41/70 structural analogs
Type: cell-based
Settings: Homo sapiens, tested once in technical triplicates
Description: 1,000 cells per 36 μl were seeded in each well in 384-well plates. Lethal compounds were dissolved, and a twofold, 12-point dilution series was prepared in DMSO. Compound solutions were further diluted with media at 1:25, and 4 μl per well of the diluted solutions was added to cell cultures immediately after cells were seeded. […] When other cell-death-modulating compounds (100 nM sodium selenite, 1 μM cerivastatin, 100 μg/mL mevalonic acid) were used in cotreatments, they were supplemented to cell culture for 24 h before lethal compounds were added to cell culture, after which cells were further incubated for 24 h at 37° C. under 5% CO2. On the day of the viability measurement, we added 10 μl per well of 50% Alamar Blue diluted in media (Life Technologies) and further incubated the cells at 37° C. for 6 h. Fluorescence intensity (excitation/emission: 530/590) was measured with a Victor 3 plate reader (PerkinElmer), and the normalized viability was calculated as VL=(IL−I0)/(IV−I0), where VL, I0, IV, and IL are the normalized viability and the raw fluorescence intensities from the wells containing media, cells treated with a vehicle (negative control), and cells with the lethal compound (L), respectively. When the effect of a chemical modulator (M) on L was calculated, we instead used the equation VL|M=(IM,L−I0)/(IM,V−I0), where VL|M, IM,L and IM,V are the normalized viability, and fluorescence intensity from cells treated with […], respectively. The viability was typically measured in biological triplicate unless otherwise specified. A representative dose-response curve, the mean and standard error of normalized viability from one replicate were plotted. HT-1080 viability after modulator treatments corresponding to FIG. 3C and FIGS. 5E-5F is available in FIGS. 19A-19C.
Their lethality was tested once in HT-1080 cells in technical triplicates.

Row | SMILES | EC50
1 | COc1ccccc1C/C(N)=N/OC(=O)COc1cccc2ccccc12 [CB13] | > 20 µg/mL
2 | Cc1ccccc1OCC(=O)O/N=C(\N)Cc1cccs1 [CB21] | > 20 µg/mL
3 | N/C(Cc1ccc(-c2csnn2)cc1)=N\OC(=O)C1CC1 [MB7] | > 20 µg/mL
4 | Cc1cc(C(F)(F)F)nn1C/C(N)=N/OC(=O)CC1CC2CCC1C2 (centres unmarked) [ZE10] | > 20 µg/mL
5 | N/C(Cc1ccc(Cl)cc1Cl)=N\OC(=O)Cc1ccc(Cl)cc1 [VM2] | > 20 µg/mL
6 | Cc1cc(OCC(=O)O/N=C(\N)Cc2cccs2)ccc1Br [CB38] | > 20 µg/mL
7 | CCC(=O)O/N=C(\N)COc1ccc(Cl)cc1Cl [MB12] | > 20 µg/mL
8 | N/C(Cc1ccc([N+](=O)[O-])cc1)=N\OC(=O)Cc1ccc(Cl)cc1 [CB9] | > 20 µg/mL
